Measurements published in patent US9718790B2, “Triazine derivative and pharmaceutical composition having an analgesic activity comprising the same” (SHIONOGI & CO., LTD., priority 2010, dated 2017).
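Further: stimulus was 50 nM ATP with fluorescence followed for 3 min, and the response per well was peak post-ATP fluorescence divided by the reading at measurement start.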

The compounds below were run against human P2X3 receptor (Homo sapiens (Human), UniProt P56373) (assay: Evaluation of human P2X3 receptor inhibitory activity (Fluo-3 calcium fluorescence, FDSS 3000, ATP stimulation)). Details: C6BU-1 cells stably expressing human P2X3 receptor.
human P2X3 receptor, sequence (P56373 whole entry): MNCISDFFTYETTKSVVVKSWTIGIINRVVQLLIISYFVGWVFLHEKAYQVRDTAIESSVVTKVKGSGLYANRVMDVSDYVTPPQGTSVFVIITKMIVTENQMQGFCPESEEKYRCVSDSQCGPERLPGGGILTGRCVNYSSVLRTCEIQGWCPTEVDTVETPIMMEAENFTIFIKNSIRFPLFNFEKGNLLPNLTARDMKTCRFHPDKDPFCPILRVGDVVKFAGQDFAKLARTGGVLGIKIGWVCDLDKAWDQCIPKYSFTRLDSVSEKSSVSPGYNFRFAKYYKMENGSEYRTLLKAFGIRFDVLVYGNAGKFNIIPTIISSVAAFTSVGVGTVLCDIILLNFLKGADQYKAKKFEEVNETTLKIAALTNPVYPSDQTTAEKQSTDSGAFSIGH
Type: cell-based
With `C=Cc1cc(/N=c2\[nH]c(=O)n(C[C@H](C)C(=O)O)c(=O)n2Cc2ccc(C)cc2)ccc1OCC` [Compound I-1194] the IC50 was 31 nM.
In the case of `CCOC(=O)CCn1c(=O)[nH]/c(=N\c2ccc(OC3CCC3)cc2)n(Cc2ccc(C)cc2)c1=O` [Compound I-1282], the IC50 is reported as 4 nM.
For `CC(C)Oc1ccc(/N=c2\[nH]c(=O)n(CC(=O)OC3CCOCC3)c(=O)n2Cc2ccc(Cl)cc2)cc1Cl` [Compound I-0673], the IC50 was 8 nM.
`COC(=O)NCCn1c(=O)[nH]/c(=N\c2ccc(OC(C)C)c(F)c2)n(Cc2ccc(Cl)cc2)c1=O` [Compound I-0607] gave an IC50 of 12 nM.
Work on `CCn1c(=O)[nH]/c(=N\c2ccc(Oc3ccnc(C(=O)NC)c3)cc2)n(Cc2ccc(C)cc2)c1=O` [Compound I-2013] yielded an IC50 of 3 nM.
In the case of `COc1cc(/N=c2\[nH]c(=O)n(CCOC3CCCCO3)c(=O)n2Cc2ccc(Cl)cc2)ccc1OC(C)C` (centres unmarked) [Compound I-2005], the IC50 is reported as 3 nM.
Compound `CCCCc1ccc(/N=c2\[nH]c(=O)n(C[C@H](C)C(=O)OC)c(=O)n2Cc2ccc(Cl)cc2)cc1` [Compound I-0620] has an IC50 of 44 nM.
For `CCCn1c(=O)[nH]/c(=N\c2ccc(Oc3ccc(C(=O)OC)nc3)cc2)n(Cc2ccc(Cl)cc2)c1=O` [Compound I-2157], the IC50 was 1 nM.
With `CCn1c(=O)[nH]/c(=N\c2ccc(Oc3cc(F)cc(C(=O)OC)c3)cc2)n(Cc2ccc(Cl)cc2)c1=O` [Compound I-2219] the IC50 was 14 nM.
For `COc1cc(/N=c2\[nH]c(=O)n(CCCOC3CCCCO3)c(=O)n2Cc2ccc(Cl)cc2)ccc1OC(C)C` (centres unmarked) [Compound I-2000], the IC50 was 3 nM.
With `CC(C)n1c(=O)n(Cc2ccc(Cl)cc2)c(=O)n(Cc2ccc(C(F)(F)F)cc2)c1=O` [Compound I-1289, 1-(4-chlorobenzyl)-3-isopropyl-5-(4-trifluoromethylbenzyl)-1,3,5-triazinane-2,4,6-trione] the IC50 was 510 nM.
For `O=c1[nH]/c(=N\c2ccc3nc(C4CC4)sc3c2)n(Cc2ccc(Cl)cc2)c(=O)n1CC(CO)CO` [Compound I-1983], the IC50 was 10 nM.
`COC(=O)[C@@H](C)Cn1c(=O)[nH]/c(=N\c2ccc(CC(C)C)c(F)c2)n(Cc2ccc(C)cc2)c1=O` [Compound I-1252] was tested, and the IC50 was 23 nM.
For `Cc1cc(/N=c2\[nH]c(=O)n([C@@H](C)[C@@H](C)C(=O)O)c(=O)n2Cc2ccc(Cl)cc2)ccc1OC1CCC1` [Compound I-1409], the IC50 was 17 nM.
`CC(C)Oc1ccc(/N=c2\[nH]c(OCC(=O)NCCO)nc(=O)n2Cc2ccc(Cl)cc2)cc1F` [Compound I-0582] showed an IC50 of 365 nM.
In the case of `CCn1c(=O)[nH]/c(=N\c2ccc(Oc3nc(O)nc(O)n3)cc2)n(Cc2ccc(Cl)cc2)c1=O` [Compound I-2222], the IC50 is reported as 5 nM.
Compound `CCn1c(=O)[nH]/c(=N\c2ccc(Oc3cncc(C(=O)OC)c3)cc2)n(CC2CCC3(CC2)CC3)c1=O` [Compound I-2173] has an IC50 of 12 nM.
`CCn1c(=O)[nH]/c(=N\c2ccc(Oc3ccnc(C(=O)O)c3)cc2)n(CC2CCC(C)(C)CC2)c1=O` [Compound I-2208] was tested, and the IC50 was 12 nM.
For `Cc1ccc(Cn2c(=O)n([C@H](C)[C@H](C)C(=O)O)c(=O)[nH]/c2=N\c2ccc(OC(C)C)c(Cl)c2)cc1` [Compound I-1337], the IC50 was 14 nM.
In the case of `COC(=O)[C@@H](C)Cn1c(=O)[nH]/c(=N\c2cccc(C(C)C)c2)n(Cc2ccc(Cl)cc2)c1=O` [Compound I-0777], the IC50 is reported as 116 nM.
`CC(C)Oc1ccc(/N=c2\[nH]c(=O)n(C/C(N)=N/O)c(=O)n2Cc2ccc(Cl)cc2)cc1F` [Compound I-0599] gave an IC50 of 38 nM.
With `Cc1cc(/N=c2\[nH]c(=O)n(C[C@H]3COC(C)(C)O3)c(=O)n2Cc2ccc(Cl)cc2)ccc1OC(C)C` [Compound I-0709] the IC50 was 7 nM.
Compound `CCCn1c(=O)[nH]/c(=N\c2ccc(Oc3ccnc(C(=O)O)c3)cc2)n(Cc2ccc(Cl)cc2)c1=O` [Compound I-2162] has an IC50 of 6 nM.
`CCn1c(=O)[nH]/c(=N\c2ccc(OC3CNC=C(C(=O)OC)C3)cc2)n(Cc2ccc(Cl)cc2)c1=O` (centres unmarked) [Compound I-2138] showed an IC50 of 171 nM.

Same assay, conditions: C6BU-1 cells stably expressing human P2X3 receptor, Fluo-3 fluorescence, FDSS 3000
In the case of `CC(C)Oc1ccc(/N=c2\[nH]c(=O)n(CC3(CC(=O)O)CC3)c(=O)n2Cc2ccc(Cl)cc2)cc1Cl` [Compound I-0981], the IC50 is reported as 10 nM.
With `Cc1ccc(Cn2c(=O)n(CC3(C(=O)O)CC3)c(=O)[nH]/c2=N\c2ccc(OCC3CC3)c(Cl)c2)cc1` [Compound I-0976] the IC50 was 69 nM.
Compound `CCC[C@@H](C)Oc1ccc(/N=c2\[nH]c(=O)n(C[C@H](C)C(=O)OC)c(=O)n2Cc2ccc(C)cc2)cc1` [Compound I-1047] has an IC50 of 154 nM.
`COC(=O)c1cc(/N=c2\[nH]c(=O)n(CCC(=O)O)c(=O)n2Cc2ccc(C)cc2)cn1C` [Compound I-1879] was tested, and the IC50 was 128 nM.
Compound `Cc1nc2ccc(/N=c3\[nH]c(=O)n(CCCO)c(=O)n3Cc3ccc(Cl)cc3)cc2s1` [Compound I-1619] has an IC50 of 6 nM.
For `Cc1ccc(Oc2ccc(/N=c3\[nH]c(=O)n(CCCO)c(=O)n3Cc3ccc(Cl)cc3)cc2)cn1` [Compound I-1597], the IC50 was 4 nM.
`COC(=O)[C@@H](C)Cn1c(=O)[nH]/c(=N\c2ccc(OC3CCCC3)cc2)n(Cc2ccc(C)cc2)c1=O` [Compound I-1186] was tested, and the IC50 was 33 nM.
`CCOC(=O)CCn1c(=O)[nH]/c(=N\c2ccc(OC3CC3)c(Cl)c2)n(Cc2ccc(C)cc2)c1=O` [Compound I-1606] was tested, and the IC50 was 15 nM.
Work on `CCOC(=O)C1(Cn2c(=O)[nH]/c(=N\c3ccc(OCC)c(Cl)c3)n(Cc3ccc(Cl)cc3)c2=O)CC1` [Compound I-0918] yielded an IC50 of 14 nM.
`Cn1c(=O)[nH]/c(=N\c2ccc(Oc3ccnc(O)c3)cc2)n(Cc2ccc(Cl)cc2)c1=O` [Compound I-1736] showed an IC50 of 9 nM.
Compound `CCc1oc2ccc(/N=c3\[nH]c(=O)n(CC4COC(C)(C)OC4)c(=O)n3Cc3ccc(Cl)cc3)cc2c1C` [Compound I-1840] has an IC50 of 7 nM.
Work on `CC(C)Oc1ccc(/N=c2\[nH]c(=O)n(CC(=O)NS(C)(=O)=O)c(=O)n2Cc2ccc(Cl)cc2)cc1Cl` [Compound I-1876] yielded an IC50 of 35 nM.
With `Cc1ccc(Cn2c(=O)n(C[C@H](C)C(=O)O)c(=O)[nH]/c2=N\c2ccc(CN(C)C)c(Cl)c2)cc1` [Compound I-1177] the IC50 was 273 nM.
Work on `COc1ccc2cc(/N=c3\[nH]c(=O)n([C@@H](C)[C@@H](C)C(=O)O)c(=O)n3Cc3ccc(Cl)cc3)ccc2n1` [Compound I-1587] yielded an IC50 of 38 nM.
Compound `CNC(=O)CCn1c(=O)[nH]/c(=N\c2ccc3nc(C)sc3c2)n(Cc2ccc(C)cc2)c1=O` [Compound I-1570] has an IC50 of 8 nM.
`CCOc1ccc(/N=c2\[nH]c(=O)n(C[C@@H](C)C(=O)OC)c(=O)n2Cc2ccc(C)cc2)cc1Cl` [Compound I-1106] showed an IC50 of 7 nM.
Compound `Cc1nc2ccc(/N=c3\[nH]c(=O)n(C[C@H]4COC(C)(C)O4)c(=O)n3Cc3ccc(Cl)cc3)cc2s1` [Compound I-1603] has an IC50 of 5 nM.
`C[C@@H](C(=O)O)[C@H](C)n1c(=O)[nH]/c(=N\c2ccc3[nH]ccc3c2)n(Cc2ccc(Cl)cc2)c1=O` [Compound I-1781] showed an IC50 of 518 nM.

Same assay, conditions: human P2X3 receptor, Test Example 1
For `Cc1cc(Oc2ccc(/N=c3\[nH]c(=O)n(C[C@@H]4COC(C)(C)O4)c(=O)n3Cc3ccc(Cl)cc3)cc2)no1` [Compound I-2228], the IC50 was 5 nM.
`Cc1cnc(Oc2ccc(/N=c3\[nH]c(=O)n(CC(=O)O)c(=O)n3Cc3ccc(Cl)cc3)cc2)s1` [Compound I-2624] was tested, and the IC50 was 368 nM.
For `Cc1ccc(Cn2c(=O)n(C)c(=O)[nH]/c2=N\c2ccc(Oc3cccc(/C=C/C(=O)O)c3)cc2)cc1` [Compound I-2363], the IC50 was 9 nM.
For `O=c1[nH]/c(=N\c2ccc(Oc3ccon3)c(F)c2)n(Cc2ccc(Cl)cc2)c(=O)n1CC(CO)CO` [Compound I-2439], the IC50 was 4 nM.
`O=c1[nH]/c(=N\c2ccc(Oc3ccc4[nH]cnc4c3)cc2)n(Cc2ccc(Cl)cc2)c(=O)n1CCO` [Compound I-2449] gave an IC50 of 9 nM.
In the case of `NC(=O)Cn1c(=O)[nH]/c(=N\c2ccc(Oc3cnsn3)cc2)n(Cc2ccc(Cl)cc2)c1=O` [Compound I-2675], the IC50 is reported as 13 nM.
With `Cn1c(=O)[nH]/c(=N\c2ccc(Oc3cccc(/C=C/C(=O)O)c3)cc2)n(Cc2ccc(Cl)cc2)c1=O` [Compound I-2364] the IC50 was 8 nM.
`CC1(Cn2c(=O)[nH]/c(=N\c3ccc(Oc4ccon4)cc3)n(Cc3ccc(F)cc3)c2=O)COC(C)(C)OC1` [Compound I-2396] showed an IC50 of 6 nM.
Compound `COC(=O)CCn1c(=O)[nH]/c(=N\c2ccc(Oc3cccc(C(N)=O)n3)cc2)n(Cc2ccc(Cl)cc2)c1=O` [Compound I-2684] has an IC50 of 2 nM.
`CCOC(=O)Cn1c(=O)[nH]/c(=N\c2ccc(Oc3ncc(C)s3)cc2)n(Cc2ccc(Cl)cc2)c1=O` [Compound I-2619] showed an IC50 of 6 nM.
`Cc1ccc(Cn2c(=O)n(CCC(=O)O)c(=O)[nH]/c2=N\c2c(Cl)ccc(C(F)(F)F)c2C)cc1` [Compound I-2090] showed an IC50 of under 4 nM.
With `CCn1c(=O)[nH]/c(=N\c2ccc3nc(OCC(=O)OC)sc3c2)n(Cc2ccc(Cl)cc2)c1=O` [Compound I-2324] the IC50 was 115 nM.
Work on `CC[C@@H](Cn1c(=O)[nH]/c(=N\c2ccc(OC(C)C)c(C)c2)n(Cc2ccc(Cl)cc2)c1=O)C(=O)OC` [Compound I-0887] yielded an IC50 of 23 nM.
`CCOC(=O)C(F)(F)Cn1c(=O)[nH]/c(=N\c2ccc(OCC)c(Cl)c2)n(Cc2ccc(C)cc2)c1=O` [Compound I-0856] was tested, and the IC50 was 12 nM.
For `Cc1cnc(Oc2ccc(/N=c3\[nH]c(=O)n(CCO)c(=O)n3Cc3ccc(Cl)cc3)cc2)s1` [Compound I-2457], the IC50 was 13 nM.
`O=c1[nH]/c(=N\c2ccc(Oc3cccc(F)n3)cc2)n(Cc2ccc(Cl)cc2)c(=O)n1CCO` [Compound I-2516] showed an IC50 of 9 nM.
Work on `COC(=O)[C@@H](C)Cn1c(=O)[nH]/c(=N\c2ccc(OC3CC3)cc2)n(Cc2ccc(C)cc2)c1=O` [Compound I-1514] yielded an IC50 of 24 nM.
For `Cn1c(=O)[nH]/c(=N\c2ccc(Oc3cccc(C#N)n3)cc2)n(Cc2ccc(Cl)cc2)c1=O` [Compound I-2374], the IC50 was 8 nM.
`C[C@@H](CO)n1c(=O)[nH]/c(=N\c2ccc(Oc3ccon3)cc2)n(Cc2ccc(Cl)cc2)c1=O` [Compound I-2489] gave an IC50 of 50 nM.
`CCn1c(=O)[nH]/c(=N\c2ccc(Sc3ccc(C(=O)O)cc3)cc2)n(Cc2ccc(Cl)cc2)c1=O` [Compound I-2603] was tested, and the IC50 was 125 nM.
In the case of `O=C(Cn1c(=O)[nH]/c(=N\c2ccc(Oc3nccs3)cc2)n(Cc2ccc(Cl)cc2)c1=O)NCCO` [Compound I-2646], the IC50 is reported as 8 nM.
`CNC(=O)Cn1c(=O)[nH]/c(=N\c2ccc(Oc3cccnn3)cc2)n(Cc2ccc(Cl)cc2)c1=O` [Compound I-2690] showed an IC50 of 18 nM.
Work on `CCc1cc2cc(/N=c3\[nH]c(=O)n(CCCO)c(=O)n3Cc3ccc(Cl)cc3)ccc2o1` [Compound I-2336] yielded an IC50 of 10 nM.
